Common to all, as to assay: NCI-60 cell line screen, 48 h
For test [1], the system named is M19-MEL melanoma.
Test [2] concerns SNB-78 CNS.
The test system of test [3] is LXFL 529 NSCLC.
In test [4] the test system is KM20L2 colon.
For test [5], the system named is T-47D breast.
Test [6] deals with HS 578T breast.
Test [7] concerns MCF7 breast.
The subject of test [8] is MDA-MB-231 breast.
In test [9] the test system is NCI/ADR-RES ovarian.
Test [10] concerns MDA-MB-435.

Values joined by “and” are separate entries in the source; they are usually repeats but may differ in a detail not shown here. Equal values may be shown once.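 48-hour exposure; five concentrations; linearly interpolated endpoints. Abbreviation: GI50, concentration required for 50% inhibition of growth. TGI marks complete inhibition of growth.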 Where only a bound is given, the exact number is not on record here.

On to `O=P(c1ccccc1)(c1ccccc1)C1CC=C(c2ccccc2)C2(CCCC2)C1` (stereo not drawn), for which the TGI in [1], in [2], in [3] and in test [4] was greater than 100 µM throughout.
On to `O=C(Cc1nc2ccccc2s1)C(=O)Nc1ccc(Cl)cc1`, for which the TGI in [1], in [2], in [3] and in test [4] was greater than 100 µM throughout.
Turning to `CN(C)CCCCN1CCc2c(n(C)c3ccccc23)C1=O`, the TGI in test [1] was 69.6 µM; in test [5], > 51.5 µM and 59.9 µM; in [6] it was greater than 89.4 µM; in test [2], greater than 100 µM; in test [3] it was 35.1 µM; in test [7], > 59.9 µM and 64.7 µM. Besides, the TGI in test [8] was > 63.2 µM and 61.9 µM; in [9] it was greater than 100 µM; in test [4] it was greater than 72.9 µM; in test [10] it was 33.9 µM and 35 µM.
Regarding `COc1ccc2[nH]cc(CCNC(C)=O)c2c1`, the TGI in test [1], in test [2], in test [3] and in test [4] was greater than 100 µM each time.
Turning to `CC(=O)N1CCC2(C=Nc3ccccc32)CC1`, the TGI in test [1], in [2], in test [3] and in test [4] was greater than 100 µM each time.
Consider `CC(=O)Nc1ccc(/C=C(\NC(=O)c2ccccc2)c2nc3ccc4c(c3[nH]2)C(=O)c2ccccc2C4=O)cc1`, for which the TGI in test [1], in test [2], in test [3] and in test [4] was greater than 100 µM in each case.
Take `CSC(=S)c1ccc(C(=S)SC)cc1`: the TGI in [1], in test [2], in test [3] and in test [4] was greater than 100 µM in each case.
Turning to `O=C(Nc1ccc(Cl)c(C(F)(F)F)c1)C(=O)C(C(=O)/C=C/c1ccccc1)C1OC(=O)c2ccccc21` (stereo not drawn), the TGI in test [1], in test [2], in [3] and in [4] was greater than 100 µM each time.
As for `Cc1cc2c(cc1C)NC(=O)C(NC(=O)/C=C/c1ccccc1)C=N2` (stereo not drawn), the TGI in [1], in test [2], in [3] and in test [4] was greater than 100 µM each time.
Take `CCNc1nnc(CSc2nc(-c3ccccc3)c(-c3ccccc3)[nH]2)s1`: the TGI turned out to be 32.1 µM in [1], 96.3 µM in test [2], 64.8 µM in [3] and 46.1 µM in test [4].
In the same order, the values of `COc1cccc(N2C(=O)c3c(c4[nH]c5ccccc5c4c4ccc(C(C)(C)C)cc34)C2=O)c1` are greater than 100 µM, greater than 100 µM, greater than 100 µM and greater than 100 µM.
For `CC[C@@H]1C[C@@H]2CN3CCc4c([nH]c5ccc(OC)cc45)C(COC(=O)c4ccc(OC)c(OC)c4)(C2)C13`, in that order: greater than 100 µM, greater than 100 µM, 35.1 µM and 74.3 µM.
On to `COc1cc(Nc2cnc3cc(C(F)(F)F)ccc3n2)cc(OC)c1OC`, for which the TGI in test [1], in test [2], in test [3] and in test [4] was greater than 100 µM throughout.
As to `C/C(=N\NC(=S)N1CCCCCC1)c1nccnc1C`, the TGI in test [1] is 15.6 µM; in [2] it was greater than 100 µM; in [3], greater than 100 µM; in test [4], greater than 100 µM.
As to `CCCCCCCCCCCCCS(=O)(=O)O`, the TGI in test [1], in test [2], in [3] and in test [4] was greater than 100 µM in each case.
As for `Cc1ccc(NC(=O)c2[nH]c(=S)nc(N)c2-c2ccccc2C)cc1C`, the TGI in test [1], in test [2], in test [3] and in [4] was greater than 100 µM in each case.
For the molecule `O=C1NC(=O)C(C(=O)C(=O)Nc2ccc(Br)cc2)C(=O)N1`, the TGI in [1], in [2], in test [3] and in test [4] was greater than 100 µM throughout.
`O=C(CCN1CCN(c2cccc(Cl)c2)CC1)N1CCc2c([nH]c3ccccc23)C1c1cccnc1` (stereo not drawn): the TGI worked out at 26.4 µM in test [1], 9.97 µM in [2], 19.6 µM in test [3] and 20.1 µM in test [4]. Besides, the GI50 in test [3] was 6.24 µM; in test [4], 4.71 µM.
As to `CN/N=C(/Cc1occc(=O)c1O)C(=O)Nc1ccc(C)c(C)c1`, the TGI in test [1], in test [2], in test [3] and in [4] was greater than 100 µM throughout.
Turning to `O=C1C2C(C(=O)N1O)N(Cc1ccccc1)C(=O)N2Cc1ccccc1` (stereo not drawn), the TGI in test [1], in test [2], in [3] and in test [4] was greater than 100 µM throughout.

Source of the values: PubChem BioAssay (NCI).
